Reference: article PMC8769072, “Proteome‐scale mapping of binding sites in the unstructured regions of the human proteome” (Molecular Systems Biology, 2022)
Where a SMILES comes first, the peptide text is derived from it. Where no end group is shown, it is not given here. [ ]: non-standard residue; d: D form. The star is where a group is joined. FITC = O=C1OC2(c3ccc(O)cc3Oc3cc(O)ccc32)c2ccc(NC(=S)*)cc21; pT = C[C@@H](OP(=O)(O)O)[C@H](N)C(=O)O; pS = N[C@@H](COP(=O)(O)O)C(=O)O

Tests used:
[1] = target: T1, CLTC (Homo sapiens, UniProt Q00610); assay: FP competition, CLTC; assay type: binding; details: competitive FP assay
T1 construct: Q00610; CLTC; Clathrin propeller; 364; pETM33; Genescript; 6-His-GST; made in house; host or cells: Escherichia coli BL21(DE3) gold (stated for the bait preparation)
T1 sequence (Q00610 1-364): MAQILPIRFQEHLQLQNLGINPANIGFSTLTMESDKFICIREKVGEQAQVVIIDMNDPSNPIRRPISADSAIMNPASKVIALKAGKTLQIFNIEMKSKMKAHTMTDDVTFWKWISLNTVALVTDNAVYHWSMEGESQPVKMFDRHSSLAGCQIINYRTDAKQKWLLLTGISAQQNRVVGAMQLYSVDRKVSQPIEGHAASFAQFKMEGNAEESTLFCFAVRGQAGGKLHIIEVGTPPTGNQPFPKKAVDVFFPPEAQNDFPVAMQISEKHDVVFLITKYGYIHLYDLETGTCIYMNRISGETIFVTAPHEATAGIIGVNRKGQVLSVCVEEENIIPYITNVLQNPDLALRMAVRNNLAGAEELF

[2] = target: T2, KPNA4 ARM (Homo sapiens, UniProt O00629); assay: FP saturation (direct binding of FITC probes), KPNA4 ARM
T2 construct: O00629; KPNA4; Arm; 68; 487; pETM33/pETM41; Genescript; made in house; host or cells: bacteria (E. coli BL21(DE3) gold is named only for the phage-selection preparations)
T2 sequence (O00629 68-487): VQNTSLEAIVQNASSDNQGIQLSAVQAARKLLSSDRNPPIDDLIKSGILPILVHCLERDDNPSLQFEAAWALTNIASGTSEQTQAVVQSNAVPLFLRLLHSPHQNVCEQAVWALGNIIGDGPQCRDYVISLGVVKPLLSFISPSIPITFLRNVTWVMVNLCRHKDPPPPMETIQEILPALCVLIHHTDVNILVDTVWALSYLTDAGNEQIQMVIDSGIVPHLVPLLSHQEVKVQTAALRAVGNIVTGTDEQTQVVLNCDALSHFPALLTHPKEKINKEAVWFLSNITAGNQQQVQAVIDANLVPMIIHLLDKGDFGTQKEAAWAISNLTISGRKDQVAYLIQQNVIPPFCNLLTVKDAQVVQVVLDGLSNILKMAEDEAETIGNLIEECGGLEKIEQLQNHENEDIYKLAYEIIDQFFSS

[3] = target: T3, KPNB1 HEAT (Homo sapiens, UniProt Q14974); assay: FP saturation (direct binding of FITC probe), KPNB1 HEAT; details: direct binding of FITC-labeled probe, 10 nM in master mix, 50 mM KPO4 pH 7.5
T3 construct: Q14974; KPNB1; HEAT; 485; pETM41; Genescript; 6-His-MBP (from vector pETM41) (cleaved yes); made in house; host or cells: bacteria (E. coli BL21(DE3) gold is named only for the phage-selection preparations)
T3 sequence (Q14974 1-485): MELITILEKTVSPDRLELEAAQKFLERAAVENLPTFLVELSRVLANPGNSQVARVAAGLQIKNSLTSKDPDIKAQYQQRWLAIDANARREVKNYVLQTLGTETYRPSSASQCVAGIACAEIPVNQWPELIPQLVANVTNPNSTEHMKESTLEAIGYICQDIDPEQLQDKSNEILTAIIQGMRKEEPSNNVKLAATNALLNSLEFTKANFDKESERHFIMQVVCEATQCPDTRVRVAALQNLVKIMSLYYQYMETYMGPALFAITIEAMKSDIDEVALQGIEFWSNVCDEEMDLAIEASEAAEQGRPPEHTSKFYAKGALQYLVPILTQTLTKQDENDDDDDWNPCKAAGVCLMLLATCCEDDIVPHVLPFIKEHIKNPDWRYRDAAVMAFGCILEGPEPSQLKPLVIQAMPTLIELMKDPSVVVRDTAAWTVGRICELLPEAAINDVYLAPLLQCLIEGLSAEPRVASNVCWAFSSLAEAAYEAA

[4] = target: T4, TLN1 PTB (Homo sapiens, UniProt Q9Y490); assay: FP saturation (direct binding of FITC probe), TLN1 PTB; details: Fig 3C; direct binding of FITC-labeled probe
T4 construct: Q9Y490; TLN1; PTB; 309; pHH0103; Sidhu Lab (PMID: 33438817); made in house; host or cells: bacteria (E. coli BL21(DE3) gold is named only for the phage-selection preparations)
T4 sequence (Q9Y490 309-401): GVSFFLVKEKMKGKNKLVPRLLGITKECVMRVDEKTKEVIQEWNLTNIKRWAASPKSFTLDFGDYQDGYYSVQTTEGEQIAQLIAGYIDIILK

[5] = target: T5, SFN 14-3-3 (Homo sapiens, UniProt P31947); assay: FP saturation (direct binding of FITC probe), SFN 14-3-3; design: P31947; SFN; 14-3-3; 236; pHH0103; Sidhu Lab (PMID: 33438817); made in house; host or cells: bacteria (E. coli BL21(DE3) gold is named only for the phage-selection preparations); details: direct binding of FITC-labeled phospho-RAF1 probe
T5 sequence (P31947 1-236): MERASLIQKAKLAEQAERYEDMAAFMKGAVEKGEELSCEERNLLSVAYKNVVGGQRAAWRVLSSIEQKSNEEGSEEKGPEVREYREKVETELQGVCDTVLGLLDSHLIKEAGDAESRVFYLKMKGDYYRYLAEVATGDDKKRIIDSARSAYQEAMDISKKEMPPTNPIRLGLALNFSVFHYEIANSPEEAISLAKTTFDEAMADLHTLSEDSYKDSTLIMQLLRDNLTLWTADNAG
Protocol: The protein coding regions (Dataset EV2) were subcloned using the EcoRI and NcoRI restriction site into in pETM41 (EMBL) for the expression of 6‐His‐MBP‐tagged proteins or in the pETM33 (EMBL) vector. • Protein expression was induced at OD600 0.8 with 1 mM IPTG, and allowed to proceed at 18°C for 20 h. • The bacteria were harvested and lysed under the same conditions as described above. • The supernatant was batch purified using the IMAC technique with Ni Sepharose 6 Fast Flow (Cytiva). • After 1 h incubation with the gel slurry, the gel was transferred into a column. • The beads were washed with wash buffer (20 mM NaPO4, 0.5 M NaCl, 30 mM imidazole pH 7.4) and eluted with elution buffer (20 mM NaPO4 0.5 M, NaCl 500 mM imidazole, pH 7.4). The proteins were further purified as follows: • 14‐3‐3 SFN: The protein was not eluted from the IMAC column. Instead, after washing unbound protein away, His‐tagged HRV3C protease was added and incubated for 16 h in 20 mM NaPO4, 0.5 M NaCl, pH 7.4. The cleaved protein was eluted with the same buffer. […]
Peptides were obtained from GeneCust (France) at > 95% purity. […] Data were analyzed with GraphPad Prism version 9.0.0 for MacOS (GraphPad Software, San Diego, California USA, www.graphpad.com). […]

[6] = target: T5, SFN 14-3-3; assay: FP competition, SFN 14-3-3
Protocol: Fluorescence polarization affinity measurements were carried out with an iD5 multidetection plate reader (Molecular Devices) using Corning assay 96‐well half area black Flat‐bottom Nonbinding surface plates (Corning, USA #3993). The settings were 485 nm excitation and 535 nm for emission at a reading height of 1.76 mm and total volume of 50 µl. Peptides were obtained from GeneCust (France) at > 95% purity. Unlabeled peptides were dissolved in 50 mM KPO4 or 50 mM NaPO4, pH 7.5. FITC‐labeled peptides were dissolved in dimethyl sulfoxide (DMSO). Protein for saturation experiments, or peptides for the displacement experiments, were arrayed in serial dilution in 50 mM KPO4 pH 7.5 in 25 µl, followed by addition of 25 µl of a master mix. For saturation binding experiments, the master mix contained 2 mM DTT and 10 nM FITC‐labeled peptide in 50 mM KPO4 pH 7.5 or 50 mM NaPO4 pH 7.5. For competition experiments, the master mix was supplemented with the protein of interest at a concentration of four times the K D value. Data were analyzed with GraphPad Prism version 9.0.0 for MacOS (GraphPad Software, San Diego, California USA, www.graphpad.com). […]

[7] = test system: HEK293 cells; assay: GFP-based NLS sensor (tri-GFP) cellular localization; assay type: cell-based, human; details: HEK293 cells transiently transfected, fixed 36 h after transfection, epifluorescence microscopy, DAPI; n = 3 independent experiments
Source text: For the cell‐based NLS experiment, a pEGFP‐C1 vector was modified to contain two additional eGFP genes spaced by a linker region on the 3′ end of the vector's multiple cloning site (Appendix Fig S8). The modified vector is here called a “tri‐GFP vector”. DNA strands for tandem peptides to be tested for NLS function were constructed by PCR using overlapping primers that coded for the peptide sequences and also contained overlapping regions for the MCS in the tri‐GFP vector. The PCR products were then cloned into the tri‐GFP vector using Gibson Assembly® (New England Biolabs) following the manufacturer's recommendations. Obtained clones were verified by Sanger sequencing.
HEK293 cells were obtained from Sigma (Cat. 85120602) and cultured using DMEM with GlutaMAX™ Supplement (Gibco™) supplemented with 10% FBS (Gibco™) and Non‐Essential Amino Acids Solution (NEAA, Gibco™). Cultures were maintained at 37°C with 5% CO2 in humidified chambers and were routinely checked for mycoplasma contamination. For NLS experiments, cells were transfected using FuGENE® HD (Promega) according to manufacturer's instructions and using highly purified DNA samples. • Cells were then grown in eight‐well chamber slides. […]

[8] = target: T2, KPNA4 ARM; assay: FP competition, KPNA4 ARM major pocket (FITC-Myc probe); assay type: binding
Source text: Like other importins, KPNA4 has two distinct NLS‐binding pockets on the surface of an armadillo (ARM) repeat fold (major pocket, ARM 2–4; minor pocket, ARM 6–8; Fig 5B) (Smith et al, [2018]). Bipartite NLSs are usually 17–19 amino acids long and engage both pockets. Monopartite NLSs are short basic stretches, divided into five classes (Kosugi et al, [2009]): class I KR[KR]R or K[KR]RK, class II [PR]xxKR[^DE][KR] (where ^ indicates “not”), class III KRx[WFY]xxAF, class IV [RP]xxKR[KR][^DE], and class V LGKR[KR][WFY]. The class I and class II motifs preferentially interact with the major pocket (Kosugi et al, [2009]). In contrast, class III and class IV NLSs preferentially bind to the minor pocket. Using KPNA4 as a bait against the HD2 P8 library we identified 33 peptides found in 32 proteins. Of the 26 proteins for which information was available, 22 proteins were annotated as having nuclear or nucleolar localization in the UniProt database. To gain additional information we combined the data generated for KPNA4 by screening against the complete P8 HD2 library, with the results generated using two relevant sublibraries (the cytoplasmic and nuclear, and nuclear sublibraries) resulting in a set of 92 peptides containing NLS‐like sequences found in 76 proteins. Using these peptides we could generate consensus motifs that matched four of the previously reported NLS classes (Fig 5A; class I‐IV). […] Three peptides bound only to the major pocket. Eight peptides with class III motif and one KRxH‐containing peptide only bound to the minor pocket. Five peptides outcompeted both probe peptides, which may be explained by the amino acid sequence matching both class II and class III motifs (e.g., 1135‐ PSPKRKL ‐1139 in ZNF532; Fig 5), and possibly by cross specificity of the two binding pockets.

CC[C@H](C)[C@H](NC(=O)[C@H](CC(C)C)NC(=O)[C@@H]1CCCN1C(=O)[C@H](CC(C)C)NC(=O)[C@H](CC(=O)O)NC(=O)[C@@H](NC(=O)[C@H](CC(C)C)NC(C)=O)[C@@H](C)CC)C(=O)N[C@@H](CC(=O)O)C(=O)N[C@@H](Cc1ccccc1)C(=O)N[C@@H](CS)C(=O)N[C@@H](CC(=O)O)C(=O)N[C@H](C(=O)N1CCC[C@H]1C(=O)N[C@@H](CCC(=O)O)C(=O)N[C@@H](C)C(=O)N[C@@H](Cc1c[nH]cn1)C(=O)N[C@@H](Cc1ccc(O)cc1)C(=O)O)[C@@H](C)OP(=O)(O)O [GTSE1 pT] (Ac-LIDLPLIDFCD[pT]PEAHY-OH)
IC50 [1]: 87 µM

CC[C@H](C)[C@H](NC(=O)[C@H](C)NC(=O)[C@H](CCCNC(=N)N)NC(=O)CNC(=O)[C@@H](NC(=O)[C@H](CCCNC(=N)N)NC(=O)CNC(=O)[C@H](CCC(=O)O)NC(=O)[C@H](CCSC)NC(=O)[C@H](CCSC)NC(=O)[C@H](CC(=O)O)NC(=O)[C@H](Cc1ccc(O)cc1)NC(=O)[C@@H](NC(=O)[C@H](CCCNC(=N)N)NC(=O)[C@H](CCCCN)NC(=O)[C@@H]1CCCN1C(=S)Nc1ccc2c(c1)C(=O)OC21c2ccc(O)cc2Oc2cc(O)ccc21)[C@@H](C)O)C(C)C)C(=O)O [NCOR2 FITC] ({FITC}-PKRTYDMMEGRVGRAI-OH)
Kd ([2]; Appendix Fig S7, saturation curves of FITC-labeled probes with KPNA4 ARM): 0.228 ± 0.011 µM

CC(C)[C@H](NC(=O)[C@H](Cc1ccccc1)NC(=O)[C@@H](NC(=O)[C@H](C)NC(=O)[C@@H](NC(=S)Nc1ccc2c(c1)C(=O)OC21c2ccc(O)cc2Oc2cc(O)ccc21)C(C)C)[C@@H](C)O)C(=O)N[C@@H](Cc1ccccc1)C(=O)NCC(=O)N[C@@H](CCC(N)=O)C(=O)N[C@@H](CO)C(=O)N[C@@H](CO)C(N)=O [NUP153_FITC] ({FITC}-VATFVFGQSS-NH2)
Kd [3]: 106 µM

CC(C)C[C@H](NC(=O)[C@@H]1CCCN1C(=O)[C@H](CO)NC(=O)[C@H](Cc1ccc(O)cc1)NC(=O)[C@@H](NC(=O)[C@H](Cc1c[nH]c2ccccc12)NC(=O)[C@H](CO)NC(=O)[C@H](CCCNC(=N)N)NC(=O)[C@H](CCC(=O)O)NC(=O)[C@H](CC(=O)O)NC(=O)[C@@H](NC(=O)[C@@H]1CCCN1C(=O)[C@H](Cc1ccccc1)NC(=S)Nc1ccc2c(c1)C(=O)OC21c2ccc(O)cc2Oc2cc(O)ccc21)[C@@H](C)O)C(C)C)C(=O)N[C@@H](Cc1c[nH]cn1)C(=O)N[C@@H](Cc1ccc(O)cc1)C(=O)N[C@@H](CO)C(N)=O [PIP5K1C_FITC] ({FITC}-FPTDERSWVYSPLHYS-NH2)
Kd [4]: 0.15 ± 0.04 µM

CC(C)[C@H](NC(=O)[C@H](CC(N)=O)NC(=O)[C@@H]1CCCN1C(=O)[C@@H](NC(=O)[C@H](COP(=O)(O)O)NC(=O)[C@@H](NC(=O)[C@H](CO)NC(=O)[C@H](CCCNC(=N)N)NC(=O)[C@H](CCC(N)=O)NC(=S)Nc1ccc2c(c1)C(=O)OC21c2ccc(O)cc2Oc2cc(O)ccc21)[C@@H](C)O)[C@@H](C)O)C(=O)N[C@@H](Cc1c[nH]cn1)C(N)=O [RAF_FITC] ({FITC}-QRST[pS]TPNVH-NH2)
Kd [5]: 524 µM

Ac-LIDLPLIDFCDTPEAHY [GTSE1]
IC50 [1]: 97 µM

Ac-NEPTTPSWLADIPPWVP-NH2 [MAP1A]
IC50 [6]: 1970 µM

Ac-YKCKRQRQDQTLELVGL-NH2 [NKX2-5 Wt]
NLS function: localization of the GFP-based NLS sensor fused to the peptide [7]: nuclear localization | Ki [8]: 6.8 µM

Ac-YKCRRQRQDQTLELVGL-NH2 [NKX2-5 K194R]
NLS function: localization of the GFP-based NLS sensor fused to the peptide [7]: cytoplasmic localization | IC50 ([8]; FP competition with FITC-Myc320-328 probe for the major pocket, 50 mM KPO4 pH 7.5, n = 3 technical replicates): 98 µM | loss of affinity of KPNA4 binding, mutant versus wild-type ([8]; FP competition with FITC-Myc probe, K194R versus wild-type): 10 fold

Ac-YVSGNLIDLCGNQGLP [MITF Y265C]
IC50 [1]: 220 µM

Ac-YVSGNLIDLYGNQGLP [MITF]
IC50 [1]: 150 µM

{FITC}-PAAKRVKLD [Myc, FITC-labeled Myc 320-328 probe for the KPNA4 major pocket]
Kd ([2]; direct binding of FITC-labeled probe, saturation with KPNA4 ARM): 0.03 µM
